Measurements as given in PMC10726358 (Journal of Medicinal Chemistry, 2023).
Read-outs that look alike come from different tables or passages of the source.

Key:
BRD4 BD1 [1] = conditions: literature compound, no reference given; cited from earlier work
CAD aqueous solubility = test: CAD aqueous solubility
Experimental: (§1) To understand cellular target engagement, 21 was tested in an LPS-stimulated hWB assay measuring inhibition of the inflammatory mediator MCP-1 secretion.
ChromatographicLogD at pH 7.4, artificial membrane permeability, CLND solubility, and CAD solubility were measured using published protocols.[55]

[2] = Chromatographic LogD at pH 7.4
BRD4 BD1 [3] = assay type: binding, human; conditions: TR-FRET
Experimental: (§2) As a strategic decision, every compound synthesized across all of GSK’s bromodomain research projects was tested in both a BRD4 BD1 and a BRD4 BD2 TR-FRET assay as part of tier 1 data generation. […] LipE is a straightforward, yet powerful metric for medicinal chemistry teams to normalize potency relative to lipophilicity, a critical factor both for parameters of the human dose equation and also for promiscuity.[43],[44] To aid interpretation, diagonal lines representing different LipE values are shown, with the most desirable space found toward the top left-hand area of the plot representing molecules with the comparatively highest potency per unit of lipophilicity.
(§3) All TR-FRET and hWB cytokine assays have been described previously.[54]

MCP-1 = test: LPS-stimulated human whole blood (hWB) MCP-1 release assay; assay type: cell-based; conditions: LPS-stimulated human whole blood; read-out: hWB MCP-1 pIC50 (converted)
Source text: The utility of a chemical probe in target validation is directly related to its quality, with important publications detailing requirements to aid researchers.[36]−[38] […] It was accepted that selectivity would be judged initially through a mutant BRD4 TR-FRET assay and would likely shift depending on the protein construct and assay format. […] Previous studies have shown that BET BD1 inhibition is sufficient to inhibit in vitro production of MCP-1 in LPS-stimulated hWB and, as such, served as a relevant measure of cellular target engagement and, concomitantly, proof of cellular permeability.[12],[39] Selectivity over other human bromodomains outside of the BET family, known collectively as non-BET bromodomains, was also required,[40] with a ≥ 100-fold selectivity window targeted. To ensure the molecules remained within developable chemical space, a target property forecast index (PFI) as defined by chromLogDpH7.4 + number of aromatic rings ≤6 was set.[41]
as §1, §3

BRD4 BD2 = BRD4 BD2 TR-FRET assay; assay type: binding, human
Experimental: as §2, §3

BET BD1 = conditions: cited from earlier work
BET BD2 = conditions: cited from earlier work
[4] = CLND kinetic aqueous solubility

| Structure (SMILES) | solubility (CAD aqueous solubility) | chromatographic logD ([2]; pH 7.4) | BRD4 BD1 FRET pIC50 (BRD4 BD1 [3]) | fold selectivity (BRD4 BD1 over BRD4 BD2) (BRD4 BD1 [3]) | IC50 (MCP-1) | BRD4 BD2 FRET pIC50 (BRD4 BD2) | also measured |
| --- | --- | --- | --- | --- | --- | --- | --- |
| COc1ccccc1S(=O)(=O)Nc1ccc2c3c(cc(-n4cnc(C)c4)nc13)C(=O)N2C [LT052] | – | – | – | – | – | – | IC50 (BRD4 BD1 [1]): 0.088 µM; selectivity for BRD4 BD1 over BRD4 BD2 (BRD4 BD1 [1]): 138 fold |
| Cc1cc(-c2nc3ccccc3n2C[C@@H]2CCCN(C(=O)C3CCN(CC(F)F)CC3)C2)cn(C)c1=O [Compound 35, (S)-5-(1-((1-(1-(2,2-Difluoroethyl)piperidine-4-carbonyl)piperidin-3-yl)methyl)-1H-benzo[d]imidazole-2-yl)-1,3-dimethylpyridin-2(1H)-one] | ≥ 279 µg/mL | 3.2 | 6.7 | 100 fold | 0.631 µM | 4.7 | pKa (pKa of the basic amine): 4.2 |
| COCc1nc2cnc3cc(-c4c(C)noc4C)c(OC[C@H]4CCNC4)cc3c2n1[C@H](C)c1ccccc1 [GSK778] | – | – | – | – | – | – | IC50 (BET BD1): < 0.1 µM; selectivity for BET BD1 over BET BD2 (BET BD1): 30–140 fold |
| COc1cc(OC)c2c(=O)[nH]c(-c3cc(C)c(OCCO)c(C)c3)nc2c1 [Apabetalone/RVX-208] | – | – | – | – | – | – | BD2 selectivity over BET BD1 (BET BD2): 10 fold |
| Cc1cc(-c2nc3ccccc3n2CC2CCOCC2)cn(C)c1=O [Compound 13] | – | – | 7.2 | 6 fold | – | 6.4 | solubility ([4]; aqueous): ≥ 142 µg/mL; chromLogDpH7.4 ([2]; pH 7.4): 2.7 |
| CCNC(=O)c1cc2c(-c3cc(C(C)(C)O)ccc3Oc3c(C)cc(F)cc3C)cn(C)c(=O)c2[nH]1 [ABBV-744] | – | – | – | – | – | – | BD2 selectivity over BET BD1 (BET BD2): 330 fold |
| CC(=O)N1CCC[C@H](Cn2c(-c3cc(C)c(=O)n(C)c3)nc3ccccc32)C1 [(R)-12, (R)-5-(1-((1-Acetylpiperidin-3-yl)methyl)-1H-benzo[d]imidazole-2-yl)-1,3-dimethylpyridin-2(1H)-one] | – | 2.3 | 7.5 | 16 fold | – | 6.3 | solubility ([4]; aqueous): ≥ 169 µg/mL |
| Cc1cc(-c2nc3ccccc3n2C[C@@H]2CCCN(C(=O)[C@H]3C[C@H](N)C3)C2)cn(C)c1=O [Compound 23, 5-(1-(((S)-1-((1r,3S)-3-Aminocyclobutane-1-carbonyl)piperidin-3-yl)methyl)-1H-benzo[d]imidazole-2-yl)-1,3-dimethylpyridin-2(1H)-one] | ≥ 230 µg/mL | 1.2 | 7.9 | 316 fold | 0.2 µM | 5.4 | – |
| Cc1cc(-c2nc3ccccc3n2C[C@@H]2CCCN(C(=O)C3CCC(N)CC3)C2)cn(C)c1=O (stereo in doubt) [Compound 28, 5-(1-(((S)-1-((1r,4R)-4-Aminocyclohexane-1-carbonyl)piperidin-3-yl)methyl)-1H-benzo [d]imidazole-2-yl)-1,3-dimethylpyridin-2(1H)-one] | ≥ 155 µg/mL | 1.4 | 7.9 | 631 fold | 0.316 µM | 5.1 | – |
| CC(=O)N1CCC[C@@H](Cn2c(-c3cc(C)c(=O)n(C)c3)nc3cc(Br)ccc32)C1 [Compound 14, (S)-5-(1-((1-Acetylpiperidin-3-yl)methyl)-5-bromo-1H-benzo[d]imidazole-2-yl)-1,3-dimethylpyridin-2(1H)-one] | – | 3.3 | 8.0 ± 0.06 (2) | 50 fold | – | 6.3 ± 0.01 (2) | solubility [4]: ≥ 250 µg/mL |
| CC(=O)N1CCC(C(=O)N2CCC[C@@H](Cn3c(-c4cc(C)c(=O)n(C)c4)nc4ccccc43)C2)CC1 [Compound 33, (S)-5-(1-((1-(1-Acetylpiperidine-4-carbonyl)piperidin-3-yl)methyl)-1H-benzo[d]imidazole-2-yl)-1,3-dimethylpyridin-2(1H)-one] | ≥ 205 µg/mL | 2.2 | 6.5 | 63 fold | 2 µM | 4.7 | – |
| Cc1cc(-c2nc3ccccc3n2C[C@@H]2CCCN(C(=O)C3CCN(CCF)CC3)C2)cn(C)c1=O [Compound 34, (S)-5-(1-((1-(1-(2-Fluoroethyl)piperidine-4-carbonyl)piperidin-3-yl)methyl)-1H-benzo[d]imidazole-2-yl)-1,3-dimethylpyridin-2(1H)-one] | ≥ 207 µg/mL | 2.5 | 7.6 | 794 fold | 0.0631 µM | 4.7 | pKa (pKa of the basic amine): 7.3 |
| CC(=O)N1CCC[C@@H](Cn2c(-c3cc(C)c(=O)n(C)c3)nc3ccccc32)C1 [(S)-12, (S)-5-(1-((1-Acetylpiperidin-3-yl)methyl)-1H-benzo[d]imidazole-2-yl)-1,3-dimethylpyridin-2(1H)-one] | – | 2.2 | 8.0 | 63 fold | – | 6.2 | solubility ([4]; aqueous): ≥ 247 µg/mL; PFI (property forecast index) ([2]; chromLogDpH7.4 + number of aromatic rings): 5.2; IC50 (BRD4 BD1 [3]; read-out: BRD4 BD1 potency (IC50)): 0.01 µM |
| Cc1cc(-c2nc3ccccc3n2C[C@@H]2CCCNC2)cn(C)c1=O [Compound 19, (R)-1,3-Dimethyl-5-(1-(piperidin-3-ylmethyl)-1H-benzo[d]imidazole-2-yl)pyridin-2(1H)-one] | – | 0.7 | 6.2 | 16 fold | – | 5.0 | solubility ([4]; aqueous (buffer not specified)): ≥ 152 µg/mL |
| Cc1cc(-c2nc3ccccc3n2C[C@@H]2CCCN(C(=O)C3CNC3)C2)cn(C)c1=O [Compound 22, (S)-5-(1-((1-(Azetidine-3-carbonyl)piperidin-3-yl)methyl)-1H-benzo[d]imidazole-2-yl)-1,3-dimethylpyridin-2(1H)-one] | ≥ 169 µg/mL | 1.2 | 8.0 | 126 fold | 0.631 µM | 5.9 | – |
| Cc1cc(-c2nc3ccccc3n2C[C@@H]2CCCN(C(=O)C3CCCN(C)C3)C2)cn(C)c1=O (stereo partly drawn) [Compound 29, 1,3-Dimethyl-5-(1-(((3S)-1-(1-methylpiperidine-3-carbonyl)piperidin-3-yl)methyl)-1H-benzo[d]imidazole-2-yl)pyridin-2(1H)-one] | ≥ 204 µg/mL | 1.7 | 6.8 | 50 fold | 1.58 µM | 5.1 | – |
